This note sets out measurements from BindingDB's records for patent US20240335431 (Acerta Pharma, 2024).

Each structure is given as a SMILES string.

In the experiment the target is T1, Menin (Homo sapiens, UniProt O00255).
T1 sequence (O00255 whole entry): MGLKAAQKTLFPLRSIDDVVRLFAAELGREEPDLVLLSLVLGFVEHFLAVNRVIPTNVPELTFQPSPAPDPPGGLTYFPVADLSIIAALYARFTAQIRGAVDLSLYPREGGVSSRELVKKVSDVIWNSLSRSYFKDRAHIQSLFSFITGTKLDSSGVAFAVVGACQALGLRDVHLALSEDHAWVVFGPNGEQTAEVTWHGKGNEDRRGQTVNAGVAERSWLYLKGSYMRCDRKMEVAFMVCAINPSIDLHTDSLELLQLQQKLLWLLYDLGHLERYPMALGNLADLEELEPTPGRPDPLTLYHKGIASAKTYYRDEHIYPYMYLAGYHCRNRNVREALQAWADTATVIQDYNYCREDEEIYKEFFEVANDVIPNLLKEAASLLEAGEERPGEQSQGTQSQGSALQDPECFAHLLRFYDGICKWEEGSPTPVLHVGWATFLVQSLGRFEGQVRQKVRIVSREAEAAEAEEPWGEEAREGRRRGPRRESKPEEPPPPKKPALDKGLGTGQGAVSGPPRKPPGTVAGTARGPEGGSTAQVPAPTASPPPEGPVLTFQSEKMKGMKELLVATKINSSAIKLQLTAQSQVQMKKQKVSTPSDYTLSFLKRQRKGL
Put plainly: Fluorescence Polarization (FP) Assay. The procedure: Compounds were tested in a biochemical binding assay using Menin protein at 2 nM (N6his-tev-Menin_4i80, PB-20-1459) and the substrate cRho110-Ahx-MBM1/MBM2 peptide (UbiQ, UbiQ-Q20201030; cRh110-Ahx-[…]-QRVPALLLPPG-NH2) at 1 nM.384 Low volume black plates (Corning #4514) were used. 5 μL/well compound or 3% DMSO was added at 10-fold serial dilutions in DMSO from 10 μM. 5 μL/well cRho110-Ahx-MBM1/MBM2 peptide or binding buffer (50 mM Tris pH 7.5, 50 mM NaCl, 1 mM TCEP, 0.01% BGG, 0.01% Brij-35) was added to all wells. 5 μL/well Menin protein or binding buffer (50 mM Tris pH 7.5, 50 mM NaCl, 1 mM TCEP, 0.01% BGG, 0.01% Brij-35) was added to all wells. Plates were read on an EnVision plate reader (Perkin Elmer) with excitation at 480 nm and emission at 535 nm P+S, and measured every 5 minutes for 180 minutes.

`COCCN(C)CCC[C@H](C(C)C)N1CCC(C(=O)c2cn(-c3ccc(F)cc3C(=O)N(C(C)C)C(C)C)c3cnccc23)CC1` (racemic) [US20240335431, Example 23]: inhibition was half-maximal at 7 nM (IC50).

As for `CC(C)N(C(=O)c1cc(F)ccc1-n1cc(C(=O)C2CCN(C(=O)[C@H]3NC[C@@H]4CC[C@@H]43)CC2)c2ccncc21)C(C)C` (relative stereo) [US20240335431, Example 25], the half-inhibitory concentration (IC50) came to 27 nM. Turning to `CC(C)N(C(=O)c1cc(F)ccc1-n1cc(C(=O)[C@@H]2CCCN(C(=O)[C@H]3N[C@@H]4CC[C@H]3C4)CC2)c2ccncc21)C(C)C` (relative stereo) [US20240335431, Example 45], the midpoint of inhibition, the IC50, lay at 36 nM. For `CCN(C(=O)c1cc(F)ccc1-n1c(C)c(C(=O)C2CCN(C(=O)[C@@H]3CCC4(CC4)N3)CC2)c2ccncc21)C(C)C` (single isomer, unassigned) [US20240335431, Example 49-1] the value was 2140 nM. `CCN(C(=O)c1cc(F)ccc1-n1c(C)c(C(=O)C2CCN(C(=O)[C@@H]3CCC(C)(C)N3)CC2)c2ccncc21)C(C)C` (single isomer, unassigned) [US20240335431, Example 50-1] returned an IC50 of 5500 nM.

For `Cc1c(C(=O)C2CCN(C(=O)[C@H]3NC[C@@H]4C[C@@H]43)CC2)c2ccncc2n1-c1ccc(F)cc1C(=O)N(CC(F)(F)F)C(C)C` (single isomer, unassigned) [US20240335431, Example 51-1], the midpoint of inhibition, the IC50, lay at 778 nM. `Cc1c(C(=O)C2CCN(C(=O)[C@H]3NC[C@@H]4C[C@@H]43)CC2)c2ccncc2n1-c1ccc(F)cc1C(=O)N(C(C)C)C(C)C` (single isomer, unassigned) [US20240335431, Example 55-1] registered an IC50 of 1340 nM.

In turn, `Cc1c(C(=O)C2CCN(C(=O)[C@@H]3CCC(C)(C)N3)CC2)c2ccncc2n1-c1ccc(F)cc1C(=O)N(C(C)C)C(C)C` (single isomer, unassigned) [US20240335431, Example 56-1] came in with an IC50 of 2150 nM. For `Cc1c(C(=O)C2CCN(C(=O)[C@H]3NC[C@@H]4C[C@@H]43)CC2)c2ccncc2n1-c1ccc(F)cc1C(=O)N(C(C)C)[C@H](C)C(F)(F)F` (single isomer, unassigned) [US20240335431, Example 57-1] the value was 33 nM; for `Cc1c(C(=O)C2CCN(C(=O)[C@@H]3CCC4(CC4)N3)CC2)c2ccncc2n1-c1ccc(F)cc1C(=O)N1[C@H](C)COC[C@H]1C` (single isomer, unassigned) [US20240335431, Example 58-1], 351 nM; for `CCN(C(=O)c1cc(F)ccc1-n1c(C)c(C(=O)[C@@H]2CCN(C(=O)[C@@H]3CCC4(CC4)N3)[C@@H](C)C2)c2ccncc21)C(C)C` (single isomer, unassigned; form 1) [US20240335431, Example 52-1], 16 nM.

In turn, `CCN(C(=O)c1cc(F)ccc1-n1c(C)c(C(=O)[C@@H]2CCN(C(=O)[C@@H]3CCC4(CC4)N3)[C@@H](C)C2)c2ccncc21)C(C)C` (single isomer, unassigned; form 2) [US20240335431, Example 52-2] had an IC50 of 18 nM. For `CC(C)N(C(=O)c1cc(F)ccc1-n1cc(C(=O)[C@H]2CCN(C[C@H]3CC[C@H](NS(C)(=O)=O)CC3)C2)c2ccncc21)C(C)C` [US20240335431, Example 1] the value was 29 nM.

Compound `CC(C)N(C(=O)c1cc(F)ccc1-n1cc(C(=O)[C@H]2CCN(C(=O)[C@H]3N[C@@H]4CC[C@H]3C4)C2)c2ccncc21)C(C)C` [US20240335431, Example 2] returned an IC50 of 47 nM. For `CC(C)N(C(=O)c1cc(F)ccc1-n1cc(C(=O)[C@@H]2CCN(C(=O)[C@H]3N[C@@H]4CC[C@H]3C4)C2)c2ccncc21)C(C)C` [US20240335431, Example 3] the value was 25 nM; for `CC(C)N(C(=O)c1cc(F)ccc1-n1cc(C(=O)[C@@H]2CCN(C[C@H]3CC[C@H](NS(C)(=O)=O)CC3)C2)c2ccncc21)C(C)C` [US20240335431, Example 4], 54 nM. For `CC(C)N(C(=O)c1cc(F)ccc1-n1cc(C(=O)C2CN(C(=O)[C@H]3N[C@@H]4CC[C@H]3C4)C2)c2ccncc21)C(C)C` [US20240335431, Example 5] the value was 18 nM; for `CC(C)N(C(=O)c1cc(F)ccc1-n1cc(C(=O)C2CN(C(=O)[C@H]3NC4CCC3CC4)C2)c2ccncc21)C(C)C` [US20240335431, Example 6], 42 nM. For `CC(C)N(C(=O)c1cc(F)ccc1-n1cc(C(=O)C2CN(C(=O)[C@H]3N[C@H]4C[C@@H]3[C@@H](F)C4)C2)c2ccncc21)C(C)C` [US20240335431, Example 7] the value was 24 nM.

`CCN(C(=O)c1cc(F)ccc1-n1cc(C(=O)C2CN(C(=O)[C@H]3N[C@@H]4CC[C@H]3C4)C2)c2ccncc21)C(C)C` [US20240335431, Example 8]: the IC50 amounted to 27 nM.

Take `CCN(C(=O)c1cc(F)ccc1-n1cc(C(=O)C2CN(C(=O)[C@H]3NC4CCC3CC4)C2)c2ccncc21)C(C)C` [US20240335431, Example 9]: 51 nM corresponded to half-maximal inhibition (IC50). For `CC(C)c1ncccc1-c1cc(F)ccc1-n1cc(C(=O)C2CN(C(=O)[C@H]3N[C@@H]4CC[C@H]3C4)C2)c2ccncc21` [US20240335431, Example 10], half-maximal inhibition (IC50) was put at 4 nM.

On to `CC(C)c1cnccc1-c1cc(F)ccc1-n1cc(C(=O)C2CN(C(=O)[C@H]3N[C@@H]4CC[C@H]3C4)C2)c2ccncc21` [US20240335431, Example 11], for which the IC50 was 4 nM. For `CC(C)c1ncsc1-c1cc(F)ccc1-n1cc(C(=O)C2CN(C(=O)[C@H]3N[C@@H]4CC[C@H]3C4)C2)c2ccncc21` [US20240335431, Example 12] the value was 6 nM. Compound `CC(C)(F)c1ncccc1-c1cc(F)ccc1-n1cc(C(=O)C2CN(C(=O)[C@H]3N[C@@H]4CC[C@H]3C4)C2)c2ccncc21` [US20240335431, Example 13] showed an IC50 of 4 nM. For `CC(C)N(C(=O)c1cc(F)ccc1-n1cc(C(=O)C2CN(C(=O)[C@H]3N[C@@H]4CC[C@H]3C4)C2)c2ccnnc21)C(C)C` [US20240335431, Example 14] the value was 139 nM; for `CC(C)N(C(=O)c1cc(F)ccc1-n1cc(C(=O)C2CN(C(=O)[C@H]3N[C@@H]4CC[C@H]3C4)C2)c2ccnc(F)c21)C(C)C` [US20240335431, Example 15], 17 nM. For `CC(C)N(C(=O)c1cc(F)ccc1-n1cc(C(=O)C2CCN(C(=O)[C@H]3N[C@@H]4CC[C@H]3C4)CC2)c2ccncc21)C(C)C` [US20240335431, Example 16] the value was 21 nM; for `CC(C)N(C(=O)c1cc(F)ccc1-n1cc(C(=O)C2CCN(C[C@H]3CC[C@H](NS(C)(=O)=O)CC3)CC2)c2ccncc21)C(C)C` [US20240335431, Example 17], 21 nM. In turn, `C=C1C[C@@H]2CC[C@H]1[C@@H](C(=O)N1CCC(C(=O)c3cn(-c4ccc(F)cc4C(=O)N(C(C)C)C(C)C)c4cnccc34)CC1)N2` [US20240335431, Example 18] showed an IC50 of 37 nM. Turning to `CC(C)N(C(=O)c1cc(F)ccc1-n1cc(C(=O)C2CCN(C(=O)[C@H]3NC[C@@H]4C[C@@H]43)CC2)c2ccncc21)C(C)C` [US20240335431, Example 19], the IC50 worked out at 16 nM. The compound `CC(C)N(C(=O)c1cc(F)ccc1-n1cc(C(=O)C2CCN(C(=O)[C@H]3NC[C@@H]4CCC[C@@H]43)CC2)c2ccncc21)C(C)C` [US20240335431, Example 21] had an IC50 of 16 nM. For `CC(C)N(C(=O)c1cc(F)ccc1-n1cc(C(=O)C2CCN(C(=O)[C@H]3N[C@H]4C[C@@H]3[C@@H](F)C4)CC2)c2ccncc21)C(C)C` [US20240335431, Example 22] the value was 25 nM. For the compound `CC(C)N(C(=O)c1cc(F)ccc1-n1cc(C(=O)C2CCN(C(=O)[C@@H]3CCC4(CC4)N3)CC2)c2ccncc21)C(C)C` [US20240335431, Example 24], the IC50 stood at 19 nM. For `CC(C)N(C(=O)c1cc(F)ccc1-n1cc(C(=O)C2CCN(C(=O)[C@@H]3CC4(CC4)CN3)CC2)c2ccncc21)C(C)C` [US20240335431, Example 26] the value was 43 nM; for `CC(C)N(C(=O)c1cc(F)ccc1-n1cc(C(=O)C2CCN(C(=O)[C@@H]3CCC(C)(C)N3)CC2)c2ccncc21)C(C)C` [US20240335431, Example 27], 25 nM.

The compound `CCN(C(=O)c1cc(F)ccc1-n1cc(C(=O)C2CCN(C(=O)[C@H]3N[C@H]4C[C@@H]3[C@@H](F)C4)CC2)c2ccncc21)C(C)C` [US20240335431, Example 30] had an IC50 of 17 nM. The compound `CCN(C(=O)c1cc(F)ccc1-n1cc(C(=O)C2CCN(C(=O)[C@H]3N[C@@H]4CC[C@H]3C4)CC2)c2ccncc21)C(C)C` [US20240335431, Example 31] came in with an IC50 of 10 nM.
